Reference: patent publication US20110288151A1, “METHODS OF CHARACTERIZING BREAST CANCER AND IDENTIFYING TREATMENTS FOR SAME” (The Trustees of the University of Pennsylvania, priority 2008, published 2011)

Key:
Rac1 = test: Rac1-GTP GST pull down, HRG-treated MCF-10A cells; assay type: cell-based, human; details: serum-starved MCF-10A cells, HRG 100 ng/ml 5 min, pretreatment (1 h; PTX 24 h)
Method: The image of the immunoblot depicts Rac1-GTP levels as determined by a GST pull down assay of serum-starved MCF-10A cells treated with HRG (100 ng/ml, 5 min), with or without pretreatment with PI3K inhibitor wortmannin, EGFR inhibitor AG1478, PI3Kγ inhibitor 5-quinoxalin-6-ylmethylene-thiazolidine-2,4-dione (1 mM, 1 h), or PTX (24 h) (FIG. 17).

Rac [1] = test: Rac-GTP pull-down, HRG-treated MCF-7 cells; assay type: cell-based, human; details: HRG 100 ng/ml, 5 min, pharmacological inhibitor
Method: FIG. […] Rac-GTP levels were determined by a Rac-GTP pull-down assay of lysates of the treated cells. […]
As described above, Gβγ subunits are known to activate PI3Kγ. As Rac activation by HRG is affected by PTX as shown in Example 10, the involvement of PI3Kγ in the response was investigated.
To further investigate the role of PI3Kγ, PI3Kγ depleted MCF-7 cell lines were generated using PI3Kγ (#1 and #2) and non-target sequence (NTS) control shRNA lentiviruses (Sigma) (FIG. 16B).
To determine whether CXCR4 is involved in HRG responses, CXCR4 expression was knocked down using RNAi in MCF-7 cells. […] Such a mechanism has important implications in tumorigenesis and metastatic dissemination.

P-Rex1 = P-Rex1 sub-cellular localization in MCF-7 cells (fluorescence microscopy); assay type: cell-based, human; details: HRG 10 ng/mL 10 min, Wortmannin 1 μM, antibodies 10 μg/mL 1 hr
Method: Cells were then fixed and stained with the antibody of Example 1 to detect P-Rex1 and subject to staining with a secondary Cy2-conjugated antibody, and visualized with fluorescence microscopy. […] (FIG. 12A and FIG. 12B).
To test whether this effect of HRG on P-Rex1 localization was dependent on PI3K, MCF-7 breast cancer cells were serum starved for 48 hours, treated for 10 minutes with HRG (10 ng/mL), with or without Wortmannin (1 μM), an anti-ErbB3 blocking antibody (10 μg/mL, 1 hr) or control IgG and stained and visualized (FIG. 12B).

Rac [2] = test: Rac activation by HRG or EGF in breast cancer cell lines (GST-Raf-PBD pull-down); assay type: cell-based; details: various breast cancer cell lines, HRG 10 ng/mL or EGF 100 ng/mL, 0-5 minutes, n=3
T-47D cells = test: Membrane ruffles in T-47D cells; assay type: cell-based, human; details: T-47D cells treated with HRG or EGF
Method: HRG is known to cause morphological changes, including the formation of lamellipodia and membrane ruffles.
FIG. 14E is a bar graph depicting reduced colony formation, in response to treatment with HRG (10 ng/mL), in the P-Rex1 depleted cell lines of FIG. 14A as compared to control cells.

With `O=C1NC(=O)C(=Cc2ccc3nccnc3c2)S1` [5-quinoxalin-6-ylmethylene-thiazolidine-2,4-dione] the “sensitivity of Rac1 activation by HRG” value (Rac1) was “insensitive” and the “Rac activation by HRG” value (Rac [1]) was “dose-dependently reduced Rac activation by HRG”.
With `COc1cc2ncnc(Nc3cccc(Cl)c3)c2cc1OC` [AG1478] the “sensitivity of Rac1 activation by HRG” value (Rac1) was “blocked Rac activation”.
`CC(C)(C)n1nc(-c2ccc(Cl)cc2)c2c(N)ncnc21` [PP2] was tested, and the “effect on HRG-induced P-Rex1 localization” value (P-Rex1) was “did not have such an effect”.
In the case of “EGF: epidermal growth factor (NSDSECPLSHDGYCLHDGVCMYIEALDKYACNCVVGYIGERCQYRDLKWWELR; UniProt P01133 971-1023, looked up)”, the Rac activation (Rac [2]) was “activate Rac” and the “ruffle formation on ligand treatment” value (T-47D cells) was “characteristic ruffles were observed”.
